Experimental data: patent US20140024683A1, “CHLORIDE CHANNEL AND CHLORIDE TRANSPORTER MODULATORS FOR THERAPY IN SMOOTH MUSCLE DISEASES” (priority 2011, published 2014)
Several values for one entry are separate records, joined by “and”; a condition that tells them apart may be missing. Identical values can stand only once. Like-named read-outs stand apart in the source and are kept apart here.

Columns and labels:
[1] = system: human airway smooth muscle cells; experiment: Whole cell current clamp recording of membrane potential; assay type: cell-based
Protocol: Induced electrophysiological changes in membrane potential and current were measured using traditional whole cell patch clamp methods. Immortalized human airway smooth muscle cells were grown to confluence on collagen-treated T25 flasks. Collagenase type IV in SmBM2 medium (Lonza, Walkersville, Md.) was used to release cells adherent to the collagen matrix in the flask. Medium with cells in suspension was then harvested in a 10-ml conical tube and centrifuged at 300×g. Supernatant was removed, and the pellet was resuspended in SmBM2 medium and transferred into collagen-treated glass bottom 1-cm Petri dishes at about 10% confluence. Each dish was then incubated at 37° C. and 5% CO2 for 1-4 hours for reattachment of cells to glass-bottom Petri dishes.
Glass-bottom dishes served as a disposable recording chamber. ALA VM-8, an 8-chamber pressure-driven drug application system, was used in a still bath of extracellular salt solution. Whole-cell intracellular voltage recordings under current clamp conditions were performed with a 2-kHz Bessel filter, recording at 10 kHz using an Axopatch 200b amplifier (Axon Instruments, Foster City, Calif., USA). Electrodes were pulled using a P-97 micropipette puller from 1.5-mm OD borosilicate capillary glass (Sutter Instruments, Novato, Calif., USA). Glass electrode resistances ranged from 5 to 10 MO with intracellular solution. Whole-cell intracellular current recordings under voltage-clamp conditions were performed with a 2-kHz Bessel filter, recording at 10 kHz using an Axopatch 200b amplifier. For current measurements (FIG. 11) intracellular solutions consisted of (in mM) 140 TEA-Cl, 5 MgATP, 5 EGTA, 1 MgCl2, 10 HEPES, and 5 CaCl2 (pH 7.2). Extracellular solution consisted of (in mM) 134 NaCl, 1.4 KCl, 10 HEPES, 1 MgCl2, 1.8 CaCl2, and 10 glucose (pH 7.4). This induced the classic spontaneously transient inward currents (STICs) and spontaneously transient outward currents (STOCs) well described in this cell type. STOCs are believed to represent activation of calcium activated potassium (KCa) channels while STICs are believed to represent activation of CaCCs. TEA-Cl was included in the buffer to enhance STICs which were then recorded during the addition of 100 μM niflumic acid. When recording TEA- and niflumic acid-induced responses on membrane potential (ΔmV), the intracellular solutions contained (in mM) 140 KCl, 5 MgATP, 5 EGTA, 1 MgCl2, 10 HEPES, and 5 CaCl2 (pH 7.2), and the extracellular solutions consisted of (in mM) 134 NaCl, 5 MgATP, 5 EGTA, 1 MgCl2, 10 HEPES, and 5 CaCl2 (pH 7.2). All recordings were analyzed on Clampfit 8.0 software (Molecular Devices).

[2] = system: human airway smooth muscle cells; experiment: FLIPR membrane potentiometric dye assay (Example 21); assay type: cell-based
Protocol: Immortalized airway smooth muscle cell lines modified to stably express human telomerase reverse transcriptase were a kind gift from Dr. William Gerthoffer (University of Southern Alabama, Mobile, Ala.) prepared as described previously (Gosens et al., 2006) and grown in Dulbecco's Modified Eagle's Medium/F12 media (GIBCO, Grand Island, N.Y.), with 10% FBS and antibiotics.
Immortalized human airway smooth muscle cells were cultured on black-walled 96 well plates to 100% confluence, and were washed four times with warmed (37° C.) assay buffer of the following composition (in mM): NaCl 140, KCl 4.7, CaCl2 2.5, MgCl2 1.2, HEPES 11, D-glucose 10. A stock solution (100% dye) of FLIPR blue dye was prepared by reconstitution of 1 vial (125 mg) with 100 ml assay buffer. A 50% working stock was prepared by further diluting the reconstituted blue dye 1:1 with assay buffer and was used to load cells (90 μl/well) over 45 min at 37° C. in a humidified cell culture incubator (95% air/5% CO2). All reagents were dissolved in assay buffer. Fluorescence was measured with a Flex Station 3 (Molecular Devices) using an excitation wavelength of 530 nm, emission wavelength of 565 nm and a cutoff filter of 550 nm. Baseline fluorescence was measured every 2 seconds for 1 minute then for 2 minutes after injection of vehicle or compound of interest as indicated (using the Flexstation's 3 integrated injection capabilities).
Human airway smooth muscle cells were incubated with FLIPR membrane potentiometric dye to assess if the chloride channel blockers changed membrane potential at the cellular level. FLIPR fluorescence will increase with depolarization, and decrease with hyperpolarization. […] Therefore, chloride channel blockade, but not NKCC blockade, hyperpolarized human airway smooth muscle cells.

[3] = system: human airway smooth muscle cells; assay type: cell-based
Protocol: This buffer was exchanged at 100 μl/well just before starting the measurement of fluorescence. […] In separate experiments the effect of extracellular chloride concentrations on SOCE was measured by the predepletion of extracellular calcium in low or high chloride buffer (55 mM versus 110 mM NaCl, osmotically balanced with Na gluconate) in the presence of thapsigargin to deplete intracellular calcium stores. Calcium induced fluorescence changes were measured with the reintroduction of 2 mM extracellular CaCl2.

[4] = system: guinea pig tracheal rings; experiment: Ex vivo airway smooth muscle force, prevention or relaxation of a contraction (Example 5); details: solo therapy; vs vehicle
Protocol: The chloride channel blocker NPPB and the chloride transporter blocker bumetanide were evaluated for their ability to prevent an initial contraction (n=5) (FIG. 23A) or to relax an existing contraction (n=6) (FIG. 23B).
As a proof of concept for chloride channel blockade in general, another chloride channel blocker, 5-nitro-2-(3-phenylpropylamino)-benzoic acid (NPPB) was used in an ex vivo guinea pig airway smooth muscle model.

[5] = system: guinea pig tracheal rings; experiment: Relaxation of potassium gluconate contraction in guinea pig tracheal rings; details: 100 μM; 80 mM potassium gluconate
Protocol: (§1) Animal protocols were approved by the Columbia University Animal Care and Use Committee. Male Hartley guinea pigs weighing approximately 400 g were anesthetized with intraperitoneal injection of sodium pentobarbital (100 mg/kg). Trachea were removed and transferred to ice cold Krebs-Henseleit (KH) buffer of the following composition (in mM): NaCl 118, KCl 5.6, CaCl2 0.5, MgSO4 0.24, NaH2PO4 1.3, NaHCO3 25, glucose 5.6, pH 7.4. Epithelial-denuded tracheal rings were prepared using a dissecting microscope. Epithelium was removed by gently passing cotton fibers through the lumen of the tracheal rings. The rings were suspended in 4 mL-water jacketed organ baths (37° C.: Radnoti Glass Technology, Monrovia, Calif.) and connected to a Grass FT03 force transducer (Grass Telefactor, West Warwick, R.I.) using silk sutures. The transducers were coupled to the computer with BioPac hardware and data was collected using Acqknowledge 7.3.3 software (BioPac Systems, Goleta, Calif.). KH buffer was bubbled with a gas mixture of 95% oxygen and 5% carbon dioxide and buffer was exchanged every 15 minutes for 1 hour during equilibration of tracheal rings at 1 g resting tension. […].
Many chloride channel blockers are known to also stimulate potassium channels (Greenwood et al., 2007). Thus, we performed additional studies in the presence of a large extracellular concentration of potassium to ensure that our findings of compound 1 or 13 inhibiting a TEA-induced depolarizing contraction were not due to these compounds opening a potassium channel.

rat lung slices = experiment: Airway lumen area in peripheral small airways of rat lung slices; details: contractile agonists
Protocol: The measurement of airway contraction of a luminal area of small lung airways using the ex vivo rat lung slice method was performed as described (Perez-Zoghbi et al., 2007). The trachea was cannulated with an intravenous catheter, and after the chest cavity was opened, the collapsed lungs were reinflated with 1.3±0.1 ml of 2% agarose (low-gelling temperature) in Sigma-Hanks' Balanced Salt solution (sHBSS), followed by the injection of 0.2±0.1 of air to flush the agarose-sHBSS out of the airways and into the distal alveolar space. Subsequently, a warm (37° C.) solution of gelatin (type A, porcine skin, 300 bloom, 6% in sHBSS) was perfused through the intrapulmonary blood vessels via the pulmonary artery by injecting about 0.3 ml into the right ventricle. The warm agar and gelatin were gelled with cold sHBSS. A single lung lobe was removed and cut into serial sections of about 130 μm thick with a vibratome at about 4° C., starting at the lung periphery. Slices were maintained in DMEM (Invitrogen) at 37° C. and 10% CO2 for up to 3 days. At 37° C., the gelatin in the blood vessel lumen dissolved, leaving the blood vessel lumen empty. Lung slices were mounted in a custom-made perfusion chamber and held in place with a small sheet of nylon mesh. A second cover glass edged with silicone grease was placed over the lung slice. Perfusion of the lung slice was performed using a gravity-fed perfusion system. The volume of the chamber was about 100 μl with a perfusion rate of about 800 μl/min. […] Digital images were recorded in time lapse (30 frames/min). The area of the bronchiole and arteriole lumen was calculated, from each image, by pixel summing using custom-written software. Experiments were performed at room temperature.

RhoA = details: 10 mM TEA-acetate, 2 minutes
Protocol: FIG. 8 is a bar graph showing RhoA activation in human airway smooth muscle cells.
Measurement of activated rhoA in cultured human airway smooth muscle cells were conducted as follows. […] Reaction was stopped by solubilizing cells in buffer. Following clearance of non-solubilized cell material, the solubilized cells were reacted with Rhotekin bound to beads, which isolated activated RhoA from total RhoA. Fractions were then analyzed on a commercially available ELISA plate that quantitates activated versus total RhoA (Cytoskeleton, Inc.)

[6] = system: guinea pig tracheal rings; experiment: Relaxation of TEA contraction in guinea pig tracheal rings (Example 16, library screen); details: 10 mM TEA
Protocol: as §1

[7] = system: guinea pig tracheal rings; experiment: Relaxation of the maintenance phase of a pre-established acetylcholine contraction, guinea pig tracheal rings; details: 100 μM alone; pre-contracted with EC50 acetylcholine
Protocol: as §1
Chloride channel blockers were then tested against the plateau phase of an established acetylcholine contraction. […]

[8] = system: human airway smooth muscle; experiment: Relaxation of acetylcholine contraction in human airway smooth muscle strips; details: 100 μM alone; EC50 acetylcholine
Protocol: Studies using de-identified human tissue were reviewed by the Columbia University Institutional Review Board and deemed not human subjects research. Tissues were obtained from healthy, normal organ donor discarded surgical waste subsequent to lung transplant surgery. Tissues were collected after transplant and placed in DMEM media (GIBCO) and bubbled overnight in 5% carbon dioxide and 95% oxygen at 4° C. The following morning, the smooth muscle tissue was carefully dissected under a dissecting microscope and the epithelium removed. The strips were anchored in the organ bath as described above using KH buffer of the same composition. The strips were allowed to equilibrate for 1 hour with buffer exchanges every 15 minutes and were treated with 10^−6 M tetrodotoxin, 10^−5 M pyrilamine, and 10^−5
M MK571. Strips were contracted with an EC50 dose of acetylcholine (Ach)
This experiment was then repeated with human airway smooth muscle to investigate clinical relevance as a model of bronchospasm in humans.

[9] = system: guinea pig tracheal rings; experiment: Potentiation of isoproterenol relaxation of acetylcholine contraction, guinea pig tracheal rings; details: 50 μM compound 13
Protocol: as §1
Therefore, we tested whether the chloride channel blockers or modulation of chloride flux could be used in combination with β-agonists to potentiate their effects. […]. Therefore, a combination of treatment with compound 13 and bumetanide potentiated the relaxation effect of isoproterenol.

[10] = system: Ca^2+-activated chloride channel; experiment: Patch-clamp analysis of spontaneous transient inward currents (STICs)
[11] = 10 μM compound 13 and bradykinin, n=5
[12] = 10 μM compound 13 plus 30 μM bradykinin, n=5
[13] = compound 13 under basal conditions, n=9

O=C([O-])[C@H](O)[C@@H](O)[C@H](O)[C@H](O)CO.[K+] [K gluconate, potassium gluconate]
membrane potential (current clamp, whole cell) ([1]; 60-75 mM potassium (K)-gluconate): depolarized the cell | membrane potential, continuous fluorescence recording (representative tracing) [2]: depolarizes | intracellular calcium (fluo4-AM fluorescence) [3]: increased calcium

O=C(O)c1cc([N+](=O)[O-])ccc1NCCCc1ccccc1 [NPPB, 5-nitro-2-(3-phenylpropylamino)-benzoic acid]
relaxation of an existing contraction [4]: effective in relaxing an existing contraction | percent of potassium gluconate-induced contraction at 30 minutes [5]: 56.71%±10.6 and 56.7%±10.6

CC[N+](CC)(CC)CC.[Cl-] [TEA, tetraethylammonium chloride]
membrane potential (current clamp, whole cell) ([1]; 10 mM TEA-Cl): depolarized the cell | percent decrease in lumen area compared to rest (rat lung slices): significant decrease in lumen area | intracellular calcium (fluo4-AM fluorescence) ([3]; 10 mM TEA): does not increase intracellular Ca^2+ | RhoA activation (RhoA): activates rhoA

O=C(O)c1cc(Cl)ccc1NCc1cccc2ccccc12 [compound 13, 5-chloro-2-(1-naphthylmethylamino)benzoic acid]
percent of the TEA-induced contraction remaining at 15 minutes ([6]; 100 μM): 61.0±10.1% | relaxed fraction of a TEA-induced contraction at 15 minutes after drug addition ([6]; 100 μM): 39.0% | relaxation of TEA-induced contraction (screen of 20-compound chloride channel blocker library) [6]: most potently relax | percent of potassium gluconate-induced contraction at 30 minutes [5]: 68.17%±4.9 and 68.2%±4.9 | relaxation of established acetylcholine contraction [7]: 60.1%±5.7 | relaxation of acetylcholine contraction [8]: 52.5%±8.1 | shift of the EC50 of isoproterenol [9]: 2.2 fold | change in relative fluorescent units (membrane potential, FLIPR) ([2]; 100 μM, n=12): −264.2+/−40 RFU | amplitude of STICs ([10]; 10 μM compound 13 alone, n=9): 0.44±0.09 fold change with control normalized to 1 | frequency of STICs ([10]; 10 μM compound 13 alone, n=9): 0.4±0.1 fold change with control normalized to 1 | amplitude of STICs compared to control [10, 11]: 46% | frequency of STICs compared to control [10, 11]: 40% | amplitude of STICs [10, 12]: 0.46±0.13 fold change with control normalized to 1 | frequency of STICs [10, 12]: 0.4±0.14 fold change with control normalized to 1 | amplitude of STICs [10, 13]: 44 % of control | frequency of STICs [10, 13]: 40 % of control
